Laboratory results taken from patent US5830667A, “Human P450 IID6 cytochrome-derived peptide fragments, anti-peptide fragment antibodies, applications thereof in the diagnosis of autoimmune hepatitis” (Institut National de la Sante et de la Recherche …, priority 1991, dated 1998).
Ends that are not written are not given here.

Assays:
[1] = tested on: anti-LKM autoantibodies; assay: Peptide fragments used as diagnostic reagents for autoimmune hepatitis; assay type: binding, human
[2] = tested on: anti-LKM antibodies (LKM-positive sera); assay: ELISA test of cytochrome P450 IID6 peptides with human sera; assay type: binding; settings: for number of patients whose sera recognize the peptide: tested by ELISA and immunoblotting, 15 patients
Description: The peptides are redissolved in a PBS buffer, pH 7.4 and diluted in order to obtain concentrations of 0.1, 0.2, 0.5 and 1 μg/ml; 100 μl per well of each peptide solution are incubated overnight in microtitre plates containing 96 wells (IMMULON2a commercially available ELISAPLATE, Dynatech, Poly-Labo, Paris--FRANCE). The ELISA analysis is then performed as described in GUEGUEN M. et al., (Biochem. Biophys. Res. Commun., 1989, 159, 542), using the various human sera described above. The first antibodies are tested at dilutions ranging from 1/100 to 1/12,800. The alkaline phosphatase-conjugated goat anti-human IgG antibody is used as second antibody at a dilution of 1/1000. The test is developed by adding 100 μl of p-nitrophenyl phosphate at a concentration of 1 mg/ml in a 0.05M NaCO3 buffer, pH 9.8 and 0.001M MgCl2. The results read after incubating for 30 minutes at room temperature are considered positive when they are higher by a factor of 2 compared with the control serum.

[3] = tested on: anti-LKM antibodies (LKM-positive sera); assay: Immunoblotting of cytochrome P450 IID6 peptides with LKM-positive sera; assay type: binding, human
Description: (§1) The expression of the fusion proteins from the cDNA constructs is described by STANLEY (Nucleic Acids Research, 1983, 11, 4077). 100 μl culture samples, for each fusion protein, are subjected to electrophoresis on an 8-20% SDS-polyacrylamide gel, transferred onto nitrocellulose and analysed by the immunoblot technique.
(§2) The first antibodies used for the immunoblot method are:
(§3) 1) sera from patients responding positively to the anti-LKM antibodies;
(§4) Depending on the origin of the first antibody, the second antibody is either a peroxydase-goat anti-human IgG conjugate, or a peroxydase-goat anti-mouse IgG conjugate (Biosys), at a dilution of 1/1000.
The different peptides and especially peptides 254-271 (peptide of formula II) , 264-281 and 410-429 (peptide of formula X), are coupled to BSA via their free NH2 -terminal group, using glutaraldehyde (see especially E. HARLOW and D. LANE, 1988, Antibodies, A laboratory manual, Cold Spring Harbor Laboratory).

[4] = tested on: anti-LKM antibodies (LKM-positive sera); assay: Immunoblot analysis of the fusion proteins P450 IID6/β-gal with LKM-positive sera; assay type: binding, human; settings: eleven sera tested; FIG. 2
Description: b) Expression and immunoblot analysis of the fusion proteins obtained from the various constructs of pEX-627-LKMHC5 and pEX-627-LKMC1/BamHI.
as §1, §2, §3, §4
Rat liver and human liver microsomes and β-galactosidase, expressed by the plasmid pEX-627 not comprising the P450 DNA insert, are included on the same gels as positive controls and negative control respectively.

Row | number of patients whose sera recognize the peptide [2] [patients/15] | Molecule | positive response in patients suffering from autoimmune hepatitis [1] | further results
1 | 1 | GMTHMTSRDIGVQGFRI [Peptide of formula IX, Gly-Met-Thr-His-Met-Thr-Ser-Arg-Asp-Ile-Gly-Val-Gln-Gly-Phe-Arg-Ile] |  | 
2 | 8 | MILHPDVQRRVQQEIDDVIGQVRRPEMGDQA [Peptide of formula Va] | positive response in most patients | 

The remaining lines, values behind:

Row | Molecule | number of patients whose sera recognize the peptide [2] [patients/15] | positive response in patients suffering from autoimmune hepatitis [1] | further results
3 | EKPYPEHFLDAQGHFVKPEA [Peptide of formula X, amino acids 410-429 of human cytochrome P450 IID6] | 2 | positive response in most patients | 
4 | LLTEHRMTWDPAQPPRDL [Peptide of formula II, Leu-Leu-Thr-Glu-His-Arg-Met-Thr-Trp-Asp-Pro-Ala-Gln-Pro-Pro-Arg-Asp-Leu] |  |  | recognized by LKM-positive sera when tested by immunoblotting [3]: recognized by all the LKM-positivesera; recognized by LKM-positive sera when tested by ELISA [2]: recognized by all the LKM-positivesera
5 | LKMC1/BamHI: fusion protein from EcoRI-BamHI fragment of LKMC1, cDNA clone encoding rat cytochrome P450 db2, in plasmid pEX-627 (protein) MGLLIGDDLWAVVIFTAIFLLLVDLVHRHKFWTAHYPPGPVPLPGLGNLLQVDFENMPYSLYKLRSRYGDVFSLQIAWKPVVVINGLKAVRELLVTYGEDTADRPLLPIYNHLGYGNKSKGVVLAPYGPEWREQRRFSVSTLRDFGVGKKSLEQWVTEEAGHLCDTFAKEAEHPFNPSILLSKAVSNVIASLVYARRFEYEDPFFNRMLKTLKESFGEDTGFMAEVLNAIPILLQIPGLPGKVFPKLNSFIALVDKMLIEHKKSWD |  |  | recognition of fusion protein by LKM-positive sera on the immunoblots [4]: None of the sera of the patients tested recognizes
